Assay [1] can be described thus: Inhibition of NS5A in HCV genotype 1b infected in human HuH7.5/Con1/SG-Neo(I)-hRluc2aUb cells assessed as inhibition of replicon levels incubated for 72 hrs by luciferase reporter gene assay.
Assay [2] is described as follows: Inhibition of NS5A in HCV genotype 2a infected in human Huh7.5/J6/JFH1/EMCVIRES/hRlucNeo cells assessed as inhibition of replicon levels incubated for 72 hrs by luciferase reporter gene assay.
Assay [3] in a line: Inhibition of NS5A in HCV genotype 4a infected in human HuH7.5/Con1/SG-Neo(I)-hRluc2aUb cells assessed as inhibition of replicon levels incubated for 72 hrs by luciferase reporter gene assay. On the technique in general: In antiviral work, replicon cells carry a viral genome segment that copies itself.
Assay [4] can be described thus: Inhibition of NS5A in HCV genotype 1a infected in human HuH7.5/Con1/SG-Neo(I)-hRluc2aUb cells assessed as inhibition of replicon levels incubated for 72 hrs by luciferase reporter gene assay.
The nature of assay [5]: Inhibition of NS5A in HCV genotype 6a infected in human HuH7.5/Con1/SG-Neo(I)-hRluc2aUb cells assessed as inhibition of replicon levels incubated for 72 hrs by luciferase reporter gene assay.
A short description of assay [6]: Inhibition of NS5A in HCV genotype 3a infected in human HuH7.5/Con1/SG-Neo(I)-hRluc2aUb cells assessed as inhibition of replicon levels incubated for 72 hrs by luciferase reporter gene assay.

A word on the IC50: it is the concentration needed to halve the response being measured. For `COC(=O)N[C@H](C(=O)N1CCC[C@H]1c1ncc(-c2ccc3c(c2)OCC2(CC2)COc2cc(-c4cnc([C@@H]5CCCN5C(=O)[C@@H](NC(=O)OC)C(C)C)[nH]4)ccc2-3)[nH]1)C(C)C`, the figures for the IC50 in assay [1] and in assay [2] were 135 pM and 1800 pM, respectively.
`COC(=O)N[C@H](C(=O)N1CCC[C@H]1c1ncc(-c2ccc(C34CCC(c5ccc(-c6cnc([C@@H]7CCCN7C(=O)[C@@H](NC(=O)OC)C(C)C)[nH]6)cc5)(CC3)CC4)cc2)[nH]1)C(C)C`: the values for the IC50 in assay [1] and in assay [2] were 312 pM and 34000 pM, respectively.
For `COC(=O)N[C@H](C(=O)N1CCC[C@H]1c1ncc(-c2ccc3c(c2)OCC(C)(C)COc2cc(-c4cnc([C@@H]5CCCN5C(=O)[C@@H](NC(=O)OC)C(C)C)[nH]4)ccc2-3)[nH]1)C(C)C` the same measures were 69 pM and 176 pM.
Turning to `COC(=O)N[C@H](C(=O)N1CCC[C@H]1c1ncc(-c2ccc3c(c2)OCCc2cc(-c4cnc([C@@H]5CCCN5C(=O)[C@@H](NC(=O)OC)C(C)C)[nH]4)sc2-3)[nH]1)C(C)C`, the concentration for half-maximal inhibition (IC50) was 22 pM in assay [1] and 10600 pM in assay [2].
The corresponding values for `COC(=O)N[C@H](C(=O)N1CCC[C@H]1c1ncc(-c2ccc3c(c2)OCCCOc2cc(-c4cnc([C@@H]5CCCN5C(=O)[C@@H](NC(=O)OC)C(C)C)[nH]4)ccc2-3)[nH]1)C(C)C` are 288 pM and 314 pM.
As to `COC(=O)N[C@H](C(=O)N1CCC[C@H]1c1nc(Cl)c(-c2ccc3c(c2)OCC(C)(C)COc2cc(-c4[nH]c([C@@H]5CCCN5C(=O)[C@@H](NC(=O)OC)C(C)C)nc4Cl)ccc2-3)[nH]1)C(C)C`, the half-inhibitory concentration (IC50) in assay [1] stood at 4 pM; in assay [2], 322 pM.
As for `COC(=O)N[C@H](C(=O)N1CCC[C@H]1c1nc(Cl)c(-c2ccc3c(c2)OCCCOc2cc(-c4[nH]c([C@@H]5CCCN5C(=O)[C@@H](NC(=O)OC)C(C)C)nc4Cl)ccc2-3)[nH]1)C(C)C`, the values for the IC50 in assay [1] and in assay [2] were 19 pM and 31 pM, respectively.
Take `COC(=O)N[C@H](C(=O)N1CCC[C@H]1c1ncc(-c2ccc3c(c2)OCC(C)(C)COc2cc(-c4[nH]c([C@@H]5CCCN5C(=O)[C@@H](NC(=O)OC)C(C)C)nc4Cl)ccc2-3)[nH]1)C(C)C`: the IC50 is 21 pM in assay [1] and 671 pM in assay [2].
Take `COC(=O)N[C@H](C(=O)N1CCC[C@H]1c1ncc(-c2ccc(N3CCN(c4ccc(-c5cnc([C@@H]6CCCN6C(=O)[C@@H](NC(=O)OC)C(C)C)[nH]5)cc4)CC3)cc2)[nH]1)C(C)C`: the figures for the IC50 in assay [1] and in assay [2] were 262 pM and 4600 pM, respectively.
For `COC(=O)N[C@H](C(=O)N1CCC[C@H]1c1nc(C2CC2)c(-c2ccc3c(c2)OCC(C)(C)COc2cc(-c4[nH]c([C@@H]5CCCN5C(=O)[C@@H](NC(=O)OC)C(C)C)nc4C4CC4)ccc2-3)[nH]1)C(C)C` the same measures were 115 pM and 6800 pM.
The corresponding values for `COC(=O)N[C@H](C(=O)N1CCC[C@H]1c1nc(Cl)c(-c2ccc3c(c2)CCCc2cc(-c4[nH]c([C@@H]5CCCN5C(=O)[C@@H](NC(=O)OC)C(C)C)nc4Cl)sc2-3)[nH]1)C(C)C` are 20 pM and 52 pM.
The corresponding values for `COC(=O)N[C@H](C(=O)N1CCC[C@H]1c1ncc(-c2ccc3c(c2)CCCc2cc(-c4cnc([C@@H]5CCCN5C(=O)[C@@H](NC(=O)OC)C(C)C)[nH]4)sc2-3)[nH]1)C(C)C` are 21 pM and 801 pM.
For the molecule `COC(=O)N[C@H](C(=O)N1CCC[C@H]1c1ncc(-c2ccc3c(c2)OCCCOc2cc(-c4[nH]c([C@@H]5CCCN5C(=O)[C@@H](NC(=O)OC)C(C)C)nc4Cl)ccc2-3)[nH]1)C(C)C`, the IC50 in assay [1] amounted to 51 pM; in assay [2], 53 pM.
For `COC(=O)N[C@H](C(=O)N1CCC[C@H]1c1ncc(-c2ccc(-c3ccc(-c4ccc(-c5cnc([C@@H]6CCCN6C(=O)[C@@H](NC(=O)OC)C(C)C)[nH]5)cc4)cc3)cc2)[nH]1)C(C)C` the same measures were 136 pM and 26000 pM.
For `COC(=O)N[C@H](C(=O)N1CCC[C@H]1c1ncc(-c2ccc3c(c2)CC2(C3)Cc3ccc(-c4cnc([C@@H]5CCCN5C(=O)[C@@H](NC(=O)OC)C(C)C)[nH]4)cc3C2)[nH]1)C(C)C` the same measures were 80 pM and 27000 pM.
For `COC(=O)N[C@H](C(=O)N1CCC[C@H]1c1ncc(-c2ccc3c(c2)CCc2cc(-c4cnc([C@@H]5CCCN5C(=O)[C@@H](NC(=O)OC)C(C)C)[nH]4)sc2-3)[nH]1)C(C)C` the same measures were 21 pM and 21 pM.
In the case of `COC(=O)N[C@H](C(=O)N1CCC[C@H]1c1ncc(-c2ccc3c(c2)OCc2cc(-c4cnc([C@@H]5CCCN5C(=O)[C@@H](NC(=O)OC)C(C)C)[nH]4)sc2-3)[nH]1)C(C)C`, the 50% inhibitory concentration (IC50) was found to be 9 pM in assay [3]; 20 pM in assay [1]; 31 pM in assay [4]; 55 pM in assay [5]; 30 pM in assay [2]; 75 pM in assay [6].
`COC(=O)N[C@H](C(=O)N1CCC[C@H]1c1ncc(-c2ccc3c(ccc4cc(-c5cnc([C@@H]6CCCN6C(=O)[C@@H](NC(=O)OC)C(C)C)[nH]5)sc43)c2)[nH]1)C(C)C`: the IC50 in assay [3] is 3 pM; in assay [1] it was 12 pM; in assay [4] it was 27 pM; in assay [5], 28 pM; in assay [2], 5 pM; in assay [6], 47 pM.
Take `CCc1nc([C@@H]2CCCN2C(=O)[C@@H](NC(=O)OC)C(C)C)[nH]c1-c1ccc2c(c1)OCC(C)(C)COc1cc(-c3[nH]c([C@@H]4CCCN4C(=O)[C@@H](NC(=O)OC)C(C)C)nc3CC)ccc1-2`: the IC50 in assay [1] was found to be 219 pM; in assay [2], 80000 pM.
With `COC(=O)N[C@H](C(=O)N1CCC[C@H]1c1nc(Cl)c(-c2ccc3c(c2)OCCc2cc(-c4[nH]c([C@@H]5CCCN5C(=O)[C@@H](NC(=O)OC)C(C)C)nc4Cl)sc2-3)[nH]1)C(C)C`, the IC50 stood at 8 pM in assay [1] and 1300 pM in assay [2].
The corresponding values for `COC(=O)N[C@H](C(=O)N1CCC[C@H]1c1ncc(-c2ccc3c(ccc4cc(-c5cnc([C@@H]6[C@@H]7CC[C@@H](C7)N6C(=O)[C@@H](NC(=O)OC)C(C)C)[nH]5)sc43)c2)[nH]1)C(C)C` are 13 pM and 11 pM.
The corresponding values for `COC(=O)N[C@H](C(=O)N1CCC[C@H]1c1ncc(-c2ccc3c(c2)OCCCCOc2cc(-c4cnc([C@@H]5CCCN5C(=O)[C@@H](NC(=O)OC)C(C)C)[nH]4)ccc2-3)[nH]1)C(C)C` are 194 pM and 1300 pM.
As to `COC(=O)N[C@H](C(=O)N1CCC[C@H]1c1ncc(-c2ccc3c(ccc4sc(-c5cnc([C@@H]6CCCN6C(=O)[C@@H](NC(=O)OC)C(C)C)[nH]5)nc43)c2)[nH]1)C(C)C`, the half-maximal inhibitory concentration (IC50) in assay [1] amounted to 73 pM.
For the molecule `COC(=O)N[C@H](C(=O)N1CCC[C@H]1c1ncc(-c2ccc(N3CC4CC3CN4c3ccc(-c4cnc([C@@H]5CCCN5C(=O)[C@@H](NC(=O)OC)C(C)C)[nH]4)cc3)cc2)[nH]1)C(C)C`, the IC50 in assay [1] turned out to be 3700 pM; in assay [2], 4000 pM.
For `COC(=O)N[C@H](C(=O)N1[C@H]2CC[C@H](C2)[C@H]1c1ncc(-c2ccc3c(ccc4cc(-c5cnc([C@@H]6[C@@H]7CC[C@@H](C7)N6C(=O)[C@@H](NC(=O)OC)C(C)C)[nH]5)sc43)c2)[nH]1)C(C)C` the same measures were 21 pM and 337 pM.
The corresponding values for `COC(=O)N[C@H](C(=O)N1CCC[C@H]1c1ncc(-c2ccc3c(c2)CCc2cc(-c4cnc([C@@H]5CCCN5C(=O)[C@@H](NC(=O)OC)C(C)C)[nH]4)ccc2-3)[nH]1)C(C)C` are 15 pM and 9 pM.
Consider `COC(=O)N[C@H](C(=O)N1CCC[C@H]1c1nc(-c2ccc(-c3ccc(-c4c[nH]c([C@@H]5CCCN5C(=O)[C@@H](NC(=O)OC)C(C)C)n4)cc3)cc2)c[nH]1)C(C)C` [BMS-790052], for which the results for the IC50 in assay [1] and in assay [2] were 23 pM and 9 pM, respectively.

For the origin of these results see BindingDB's records for doi:10.1021/acs.jmedchem.9b01562 (Lupin, 2019).
